Reference: article PMC4698308, “A new amino acid substitution (Ala-205-Phe) in acetolactate synthase (ALS) confers broad spectrum resistance to ALS-inhibiting herbicides” (Planta, 2015)

How the values were obtained:
[1] = test system: annual bluegrass (Poa annua L.); assay: Whole plant confirmation of target-site resistance (visual control and dry biomass 28 days after treatment); type: in vivo
Experimental: Progeny of all POAAN-R3 plants subjected to genetic sequencing (RP1–RP8) were surface seeded into separate 10.2 × 10.2 cm greenhouse pots (Dillen Products/Myers Industries, Inc. Middlefield, OH, USA.) filled with a peat moss growing medium (ProMix BX Mycorrhizae. Premier Tech Horticulture, Quakertown, PA, USA) on 5 January 2015. The susceptible annual bluegrass population (S) included in our sequencing analysis was also seeded in the same fashion.
After seeding, pots were placed inside a growth chamber (Conviron A1000. Controlled Environments Inc, Hendersonville, NC) configured to provide 14 h day at 19 °C and a 10 h night at 10 °C. Light intensity inside the chamber averaged 296 μmol m^−2 s^−1. Irrigation was applied to each pot daily using distilled water and a misting nozzle. Annual bluegrass emergence was first noted on 16 January 2015. Plants remained inside the growth chamber until 26 January 2015. On this date, seedlings of each plant (RP1–RP8, S) were transplanted into individual 164 cm^3 plastic conical containers (SC10 Super Cell Cone-tainer. Stuewe and Sons. Tangent, OR 97389) filled with Sequatchie silt loam (fine-loamy, siliceous, semiactive, thermic humic Hapludult) measuring 6.2 in soil pH and 2.1 % in organic matter content. Transplants were replicated such that 32 plastic conical containers were created for each annual bluegrass plant analyzed in previous experiments (RP1–RP8, S). Immediately after transplanting, plastic conical containers were placed in a glasshouse located at the University of Tennessee (Knoxville, TN, USA; 35.56, 83.56). Peak light intensity in this glasshouse averaged 714 μmol m^−2 s^−1 with day/night temperatures averaging 27/17 °C. Irrigation was applied daily using an overhead misting system and plants were not clipped prior to initiating this study.
Plants were allowed to acclimate to this glasshouse environment for 10 days prior to being treated with foramsulfuron (Revolver. Bayer Environmental Sciences. Research Triangle Park, NC, USA) at 29 g ha^−1, imazamox (Clearcast. BASF Corporation. Research Triangle Park, NC) at 140 g ha^−1, or simazine (Princep 4L. Syngenta Professional Products. Greensboro, NC) at 1120 g ha^−1. Per label recommendations, imazamox and simazine treatments included a non-ionic surfactant (Activator-90. Loveland Products Inc. Greeley, CO, USA) at 0.25 % v/v. All treatments were applied in an enclosed spray chamber (Generation III track sprayer. DeVries Manufacturing, Hollandale, MN, USA) using a water carrier at 215 L ha^−1 through an 8004 EVS nozzle (TeeJet, Technologies, Spraying Systems Co., Glendale Heights, IL, USA). These herbicide treatments were selected to confirm results of genetic sequencing that RP1–RP8 were resistant to sulfonylurea, imidazolinone, and photosystem II inhibiting herbicides. A non-treated control treatment was included with each resistant (RP1–RP8) and susceptible (S) plant for comparison. Herbicides were applied on 5 February 2015 when plants were at a two-to-three leaf stage, prior to annual bluegrass tiller formation.
Annual bluegrass control was visually assessed on a 0 (i.e., no control) to 100 % (i.e., complete kill) scale relative to the non-treated 28 days after treatment. After all control data had been collected, aboveground biomass was harvested from each plastic conical container at the soil line using scissors, dried at 100 °C for 3 days, and weighed.
Treatments were arranged as a 9 × 4 factorial with nine plant selections (i.e., RP1–RP8, S) and four herbicide treatments (i.e., foramsulfuron, imazamox, simazine, non-treated) in a completely randomized design with four replications and repeated in time and space during February 2015. Plants were the same age during both experimental runs.

[2] = test system: recombinant Arabidopsis thaliana ALS variant A205V; type: biochemical; details: IC50 mutant divided by IC50 sensitive ALS; max inhibitor concentration 1.00 × 10^−04 M
Procedure, shortened: (§1)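 His-tagged enzymes lacking the 85-residue N-terminal transit peptide, expressed and purified. Herbicides in DMSO added; reaction 60 min at 30 °C, stopped with H2SO4, acetolactate converted to acetoin at 56 °C for 15 min.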

[3] = test system: recombinant Arabidopsis thaliana ALS variant W574L; type: biochemical; details: IC50 mutant divided by IC50 sensitive ALS; max inhibitor concentration 1.00 × 10^−04 M
Procedure, shortened: as §1

[4] = test system: recombinant Arabidopsis thaliana ALS variant A205F; type: biochemical; details: IC50 mutant divided by IC50 sensitive ALS; max inhibitor concentration 1.00 × 10^−04 M
Procedure, shortened: as §1

`COc1cc(OC)nc(NC(=O)NS(=O)(=O)c2cc(NC=O)ccc2C(=O)N(C)C)n1` [Foramsulfuron] was tested, and the “annual bluegrass control, resistant plants with the exception of RP6” value ([1]; 28 days after treatment, summary over RP1–RP5, RP7, RP8) was at most 11%, the “Annual bluegrass biomass RP1” value ([1]; RP1, aboveground dry biomass 28 days after treatment, foramsulfuron 29, imazamox 140, simazine 1120 g ha^-1) was 60 % of nontreated control and the “Annual bluegrass control RP1” value ([1]; RP1 plants, 28 days after treatment, 2 to 3 leaf stage, foramsulfuron 29, imazamox 140, simazine 1120 g ha^−1) was 8%. The “Annual bluegrass biomass RP2” value ([1]; RP2, aboveground dry biomass 28 days after treatment, foramsulfuron 29, imazamox 140, simazine 1120 g ha^-1) was 45 % of nontreated control, the “Annual bluegrass control RP2” value ([1]; RP2 plants, 28 days after treatment, 2 to 3 leaf stage, foramsulfuron 29, imazamox 140, simazine 1120 g ha^−1) was 11% and the “Annual bluegrass biomass RP3” value ([1]; RP3, aboveground dry biomass 28 days after treatment, foramsulfuron 29, imazamox 140, simazine 1120 g ha^-1) was 48 % of nontreated control. The “Annual bluegrass control RP3” value ([1]; RP3 plants, 28 days after treatment, 2 to 3 leaf stage, foramsulfuron 29, imazamox 140, simazine 1120 g ha^−1) was 11%, the “Annual bluegrass biomass RP4” value ([1]; RP4, aboveground dry biomass 28 days after treatment, foramsulfuron 29, imazamox 140, simazine 1120 g ha^-1) was 41 % of nontreated control and the “Annual bluegrass control RP4” value ([1]; RP4 plants, 28 days after treatment, 2 to 3 leaf stage, foramsulfuron 29, imazamox 140, simazine 1120 g ha^−1) was 5%. For the same molecule, the “Annual bluegrass biomass RP5” value ([1]; RP5, aboveground dry biomass 28 days after treatment, foramsulfuron 29, imazamox 140, simazine 1120 g ha^-1) was 62 % of nontreated control, the “Annual bluegrass control RP5” value ([1]; RP5 plants, 28 days after treatment, 2 to 3 leaf stage, foramsulfuron 29, imazamox 140, simazine 1120 g ha^−1) was 10% and the “Annual bluegrass biomass RP6” value ([1]; RP6, aboveground dry biomass 28 days after treatment, foramsulfuron 29, imazamox 140, simazine 1120 g ha^-1) was 49 % of nontreated control. For the same molecule, the “Annual bluegrass control RP6” value ([1]; RP6 plants, 28 days after treatment, 2 to 3 leaf stage, foramsulfuron 29, imazamox 140, simazine 1120 g ha^−1) was 24%, the “Annual bluegrass biomass RP7” value ([1]; RP7, aboveground dry biomass 28 days after treatment, foramsulfuron 29, imazamox 140, simazine 1120 g ha^-1) was 52 % of nontreated control and the “Annual bluegrass control RP7” value ([1]; RP7 plants, 28 days after treatment, 2 to 3 leaf stage, foramsulfuron 29, imazamox 140, simazine 1120 g ha^−1) was 10%. For the same molecule, the “Annual bluegrass biomass RP8” value ([1]; RP8, aboveground dry biomass 28 days after treatment, foramsulfuron 29, imazamox 140, simazine 1120 g ha^-1) was 51 % of nontreated control, the “Annual bluegrass control RP8” value ([1]; RP8 plants, 28 days after treatment, 2 to 3 leaf stage, foramsulfuron 29, imazamox 140, simazine 1120 g ha^−1) was 5% and the “Annual bluegrass control S” value ([1]; susceptible (S) plants, 28 days after treatment, 2 to 3 leaf stage, foramsulfuron 29, imazamox 140, simazine 1120 g ha^−1) was 93%. For the same molecule, the “Annual bluegrass biomass S” value ([1]; susceptible (S), aboveground dry biomass 28 days after treatment, foramsulfuron 29, imazamox 140, simazine 1120 g ha^-1) was 0 % of nontreated control, the “Resistance factor A205V” value [2] was 12 and the “Resistance factor W574L” value [3] was 2013. The “Resistance factor A205F” value [4] was 5160.
